Measurements taken from patent publication US20240043427A1 (Gilead Sciences, Inc., priority 2020, published 2024).

Assays:
CD73 [1] = target: T1, CD73 (Homo sapiens (Human), UniProt P21589); experiment: MDA-MB-231 Cell Based CD73 Activity Assay (DMEM); conditions: MDA-MB-231-GFP cells, DMEM medium with 10% human plasma, 200 uM AMP
CD73 [2] = target: T1, CD73; format: biochemical; conditions: 1 mM NaH2PO4 in enzyme buffer, CD73 0.3 nM, AMP 15 uM

T1 sequence (P21589 27-574): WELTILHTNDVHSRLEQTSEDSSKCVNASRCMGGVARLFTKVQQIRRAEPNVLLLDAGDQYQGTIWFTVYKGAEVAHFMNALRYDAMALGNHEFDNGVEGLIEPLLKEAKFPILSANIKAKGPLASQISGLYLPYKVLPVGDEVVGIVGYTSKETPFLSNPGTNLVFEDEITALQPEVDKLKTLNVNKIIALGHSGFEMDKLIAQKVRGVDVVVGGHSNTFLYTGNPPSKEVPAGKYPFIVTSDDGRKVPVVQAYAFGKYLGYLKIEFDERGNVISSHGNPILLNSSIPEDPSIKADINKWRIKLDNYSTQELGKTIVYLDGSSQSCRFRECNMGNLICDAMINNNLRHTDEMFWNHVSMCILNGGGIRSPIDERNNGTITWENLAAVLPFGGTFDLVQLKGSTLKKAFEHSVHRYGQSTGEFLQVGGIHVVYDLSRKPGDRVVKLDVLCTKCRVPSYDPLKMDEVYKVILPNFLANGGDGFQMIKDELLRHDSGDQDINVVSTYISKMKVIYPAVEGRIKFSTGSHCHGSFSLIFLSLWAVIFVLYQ

In the case of `O=c1[nH]cc(-c2cc(N3C4CCCC3CC4)c3nccn3n2)c(=O)[nH]1` [Example 648, 5-(8-(8-azabicyclo[3.2.1]octan-8-yl)imidazo[1,2-b]pyridazin-6-yl)pyrimidine-2,4(1H,3H)-dione], the EC50 (CD73 [1]) is reported as 1950 nM and the IC50 (CD73 [2]) is reported as > 250 nM.
`CC1(C#N)CCN(c2cc(-c3c[nH]c(=O)[nH]c3=O)nn3ccnc23)C1` (centres unmarked) [Example 649, 1-(6-(2,4-dioxo-1,2,3,4-tetrahydropyrimidin-5-yl)imidazo[1,2-b]pyridazin-8-yl)-3-methylpyrrolidine-3-carbonitrile] showed an EC50 (CD73 [1]) of 21.7 nM and an IC50 (CD73 [2]) of 11.7 nM.
Compound `O=c1[nH]cc(-c2cc(N3CC4CC(C4)C3)c3nccn3n2)c(=O)[nH]1` [Example 650, 5-(8-(3-azabicyclo[3.1.1]heptan-3-yl)imidazo[1,2-b]pyridazin-6-yl)pyrimidine-2,4(1H,3H)-dione] has an EC50 (CD73 [1]) of 18.8 nM and an IC50 (CD73 [2]) of 6.86 nM.
`O=c1[nH]cc(-c2cc(N3CCC4CCC3C4)c3nccn3n2)c(=O)[nH]1` (centres unmarked) [Example 651, 5-(8-(2-azabicyclo[3.2.1]octan-2-yl)imidazo[1,2-b]pyridazin-6-yl)pyrimidine-2,4(1H,3H)-dione] gave an EC50 (CD73 [1]) of 480 nM and an IC50 (CD73 [2]) of 129 nM.
Compound `O=c1[nH]cc(-c2cc(N3CCC(CO)(CCl)C3)c3nccn3n2)c(=O)[nH]1` (centres unmarked) [Example 652, 5-(8-(3-(chloromethyl)-3-(hydroxymethyl)pyrrolidin-1-yl)imidazo[1,2-b]pyridazin-6-yl)pyrimidine-2,4(1H,3H)-dione] has an EC50 (CD73 [1]) of 79.6 nM and an IC50 (CD73 [2]) of 19.6 nM.
With `O=c1[nH]cc(-c2cc(N3CCC4(COC4)C3)c3nccn3n2)c(=O)[nH]1` [Example 653, 5-(8-(2-oxa-6-azaspiro[3.4]octan-6-yl)imidazo[1,2-b]pyridazin-6-yl)pyrimidine-2,4(1H,3H)-dione] the EC50 (CD73 [1]) was 130 nM and the IC50 (CD73 [2]) was 25.3 nM.
`CC(C)NC(=O)CC1CCN(c2cc(-c3c[nH]c(=O)[nH]c3=O)nn3ccnc23)C1` (centres unmarked) [Example 654, 2-(1-(6-(2,4-dioxo-1,2,3,4-tetrahydropyrimidin-5-yl)imidazo[1,2-b]pyridazin-8-yl)pyrrolidin-3-yl)-N-isopropylacetamide] was tested, and the EC50 (CD73 [1]) was 133 nM and the IC50 (CD73 [2]) was 54.5 nM.
With `O=C(CC(F)(F)F)N1CCC12CCN(c1cc(-c3c[nH]c(=O)[nH]c3=O)nn3ccnc13)C2` (centres unmarked) [Example 655, 5-(8-(1-(3,3,3-trifluoropropanoyl)-1,6-diazaspiro[3.4]octan-6-yl)imidazo[1,2-b]pyridazin-6-yl)pyrimidine-2,4(1H,3H)-dione] the EC50 (CD73 [1]) was 254 nM and the IC50 (CD73 [2]) was 40.4 nM.
Work on `CC(=O)N1CCC12CCN(c1cc(-c3c[nH]c(=O)[nH]c3=O)nn3ccnc13)C2` (centres unmarked) [Example 656, 5-(8-(1-acetyl-1,6-diazaspiro[3.4]octan-6-yl)imidazo[1,2-b]pyridazin-6-yl)pyrimidine-2,4(1H,3H)-dione] yielded an EC50 (CD73 [1]) of 57 nM and an IC50 (CD73 [2]) of 10.1 nM.
Compound `CC(C)C(=O)N1CCC12CCN(c1cc(-c3c[nH]c(=O)[nH]c3=O)nn3ccnc13)C2` (centres unmarked) [Example 657, 5-(8-(1-isobutyryl-1,6-diazaspiro[3.4]octan-6-yl)imidazo[1,2-b]pyridazin-6-yl)pyrimidine-2,4(1H,3H)-dione] has an EC50 (CD73 [1]) of 227 nM and an IC50 (CD73 [2]) of 81.3 nM.
In the case of `O=C(CC1CN(c2cc(-c3c[nH]c(=O)[nH]c3=O)nn3ccnc23)CC1(F)F)NC1(C(F)(F)F)CC1` (centres unmarked) [Example 658, 2-(1-(6-(2,4-dioxo-1,2,3,4-tetrahydropyrimidin-5-yl)imidazo[1,2-b]pyridazin-8-yl)-4,4-difluoropyrrolidin-3-yl)-N-(1-(trifluoromethyl)cyclopropyl)acetamide], the EC50 (CD73 [1]) is reported as 7.88 nM and the IC50 (CD73 [2]) is reported as 1.87 nM.
In the case of `CC(C)NC(=O)CC1CN(c2cc(-c3c[nH]c(=O)[nH]c3=O)nn3ccnc23)CC1(F)F` (centres unmarked) [Example 659, 2-(1-(6-(2,4-dioxo-1,2,3,4-tetrahydropyrimidin-5-yl)imidazo[1,2-b]pyridazin-8-yl)-4,4-difluoropyrrolidin-3-yl)-N-isopropylacetamide], the EC50 (CD73 [1]) is reported as 38.1 nM and the IC50 (CD73 [2]) is reported as 3.98 nM.
In the case of `O=C(CC1CN(c2cc(-c3c[nH]c(=O)[nH]c3=O)nn3ccnc23)CC1(F)F)NC12CC(F)(C1)C2` (centres unmarked) [Example 660, 2-(1-(6-(2,4-dioxo-1,2,3,4-tetrahydropyrimidin-5-yl)imidazo[1,2-b]pyridazin-8-yl)-4,4-difluoropyrrolidin-3-yl)-N-(3-fluorobicyclo[1.1.1]pentan-1-yl)acetamide], the EC50 (CD73 [1]) is reported as 33.6 nM and the IC50 (CD73 [2]) is reported as 6.05 nM.
For `O=C(CC1CN(c2cc(-c3c[nH]c(=O)[nH]c3=O)nn3ccnc23)CC1(F)F)NC12CC(C1)C2` (centres unmarked) [Example 661, N-(bicyclo[1.1.1]pentan-1-yl)-2-(1-(6-(2,4-dioxo-1,2,3,4-tetrahydropyrimidin-5-yl)imidazo[1,2-b]pyridazin-8-yl)-4,4-difluoropyrrolidin-3-yl)acetamide], the EC50 (CD73 [1]) was 25.5 nM and the IC50 (CD73 [2]) was 4.68 nM.
With `CC(C)NC(=O)C(F)(F)C1CCN(c2cc(-c3c[nH]c(=O)[nH]c3=O)nn3ccnc23)C1` (centres unmarked) [Example 662, 2-(1-(6-(2,4-dioxo-1,2,3,4-tetrahydropyrimidin-5-yl)imidazo[1,2-b]pyridazin-8-yl)pyrrolidin-3-yl)-2,2-difluoro-N-isopropylacetamide] the EC50 (CD73 [1]) was 88.6 nM and the IC50 (CD73 [2]) was 19.2 nM.
With `CC(C)n1cc(CC2CCN(c3cc(-c4c[nH]c(=O)[nH]c4=O)nn4ccnc34)C2)nn1` (centres unmarked) [Example 663, 5-(8-(3-((1-isopropyl-1H-1,2,3-triazol-4-yl)methyl)pyrrolidin-1-yl)imidazo[1,2-b]pyridazin-6-yl)pyrimidine-2,4(1H,3H)-dione] the EC50 (CD73 [1]) was 160 nM and the IC50 (CD73 [2]) was 24.5 nM.
`O=C(NC1(C(F)(F)F)CC1)O[C@H]1CN(c2cc(-c3c[nH]c(=O)[nH]c3=O)nn3c(F)cnc23)CC1(F)F` [Example 664, (S)-1-(6-(2,4-dioxo-1,2,3,4-tetrahydropyrimidin-5-yl)-3-fluoroimidazo[1,2-b]pyridazin-8-yl)-4,4-difluoropyrrolidin-3-yl (1-(trifluoromethyl)cyclopropyl)carbamate] gave an EC50 (CD73 [1]) of 0.21 nM and an IC50 (CD73 [2]) of 0.92 nM.
For `O=C(NC12CC(C(F)(F)F)(C1)C2)O[C@H]1CN(c2cc(-c3c[nH]c(=O)[nH]c3=O)nn3c(F)cnc23)CC1(F)F` [Example 665, (S)-1-(6-(2,4-dioxo-1,2,3,4-tetrahydropyrimidin-5-yl)-3-fluoroimidazo[1,2-b]pyridazin-8-yl)-4,4-difluoropyrrolidin-3-yl (3-(trifluoromethyl)bicyclo[1.1.1]pentan-1-yl)carbamate], the EC50 (CD73 [1]) was 2.79 nM and the IC50 (CD73 [2]) was 1.46 nM.
`O=c1[nH]cc(-c2cc(N3C[C@H](Oc4cc(C(F)(F)F)cnn4)C(F)(F)C3)c3ncc(F)n3n2)c(=O)[nH]1` [Example 666, (S)-5-(8-(3,3-difluoro-4-((5-(trifluoromethyl)pyridazin-3-yl)oxy)pyrrolidin-1-yl)-3-fluoroimidazo[1,2-b]pyridazin-6-yl)pyrimidine-2,4(1H,3H)-dione] gave an EC50 (CD73 [1]) of 2.8 nM and an IC50 (CD73 [2]) of 1.8 nM.
With `CC(C)CNc1cc(-c2c[nH]c(=O)[nH]c2=O)nn2ccnc12` [Example 667, 5-(8-(isobutylamino)imidazo[1,2-b]pyridazin-6-yl)pyrimidine-2,4(1H,3H)-dione] the EC50 (CD73 [1]) was 414 nM and the IC50 (CD73 [2]) was 100 nM.
`CC(C)(C)CNc1cc(-c2c[nH]c(=O)[nH]c2=O)nn2ccnc12` [Example 668, 5-(8-(neopentylamino)imidazo[1,2-b]pyridazin-6-yl)pyrimidine-2,4(1H,3H)-dione] was tested, and the EC50 (CD73 [1]) was 857 nM and the IC50 (CD73 [2]) was > 250 nM.
For `COCCNc1cc(-c2c[nH]c(=O)[nH]c2=O)nn2ccnc12` [Example 669, 5-(8-((2-methoxyethyl)amino)imidazo[1,2-b]pyridazin-6-yl)pyrimidine-2,4(1H,3H)-dione], the EC50 (CD73 [1]) was 690 nM and the IC50 (CD73 [2]) was > 250 nM.
Work on `O=c1[nH]cc(-c2cc(NCC(F)F)c3nccn3n2)c(=O)[nH]1` [Example 670, 5-(8-((2,2-difluoroethyl)amino)imidazo[1,2-b]pyridazin-6-yl)pyrimidine-2,4(1H,3H)-dione] yielded an EC50 (CD73 [1]) of 573 nM and an IC50 (CD73 [2]) of 154 nM.
With `COc1ccc(CN(CC(F)F)c2cc(-c3c[nH]c(=O)[nH]c3=O)nn3ccnc23)cc1` [Example 671, 5-(8-((2,2-difluoroethyl)(4-methoxybenzyl)amino)imidazo[1,2-b]pyridazin-6-yl)pyrimidine-2,4(1H,3H)-dione] the EC50 (CD73 [1]) was 1620 nM and the IC50 (CD73 [2]) was > 250 nM.
`O=c1[nH]cc(-c2cc(NCC(F)(F)F)c3nccn3n2)c(=O)[nH]1` [Example 672, 5-(8-((2,2,2-trifluoroethyl)amino)imidazo[1,2-b]pyridazin-6-yl)pyrimidine-2,4(1H,3H)-dione] gave an EC50 (CD73 [1]) of 383 nM and an IC50 (CD73 [2]) of 148 nM.
`O=c1[nH]cc(-c2cc(OCCc3ccccc3)c3nccn3n2)c(=O)[nH]1` [Example 673, 5-(8-phenethoxyimidazo[1,2-b]pyridazin-6-yl)pyrimidine-2,4(1H,3H)-dione] gave an EC50 (CD73 [1]) of 31.6 nM and an IC50 (CD73 [2]) of 5.46 nM.
For `CC(COc1cc(-c2c[nH]c(=O)[nH]c2=O)nn2ccnc12)c1ccccc1` (centres unmarked) [Example 674, 5-(8-(2-phenylpropoxy)imidazo[1,2-b]pyridazin-6-yl)pyrimidine-2,4(1H,3H)-dione], the EC50 (CD73 [1]) was 48.1 nM and the IC50 (CD73 [2]) was 16.3 nM.
`O=c1[nH]cc(-c2cc(OCC(F)(F)F)c3nccn3n2)c(=O)[nH]1` [Example 675, 5-(8-(2,2,2-trifluoroethoxy)imidazo[1,2-b]pyridazin-6-yl)pyrimidine-2,4(1H,3H)-dione] gave an EC50 (CD73 [1]) of 78.7 nM and an IC50 (CD73 [2]) of 49.5 nM.
In the case of `CC(C)(COc1cc(-c2c[nH]c(=O)[nH]c2=O)nn2ccnc12)C(F)(F)F` [Example 676, 5-(8-(3,3,3-trifluoro-2,2-dimethylpropoxy)imidazo[1,2-b]pyridazin-6-yl)pyrimidine-2,4(1H,3H)-dione], the EC50 (CD73 [1]) is reported as 429 nM and the IC50 (CD73 [2]) is reported as 141 nM.
For `CC(F)(F)COc1cc(-c2c[nH]c(=O)[nH]c2=O)nn2ccnc12` [Example 677, 5-(8-(2,2-difluoropropoxy)imidazo[1,2-b]pyridazin-6-yl)pyrimidine-2,4(1H,3H)-dione], the EC50 (CD73 [1]) was 22.2 nM and the IC50 (CD73 [2]) was 12.2 nM.
`CC(C)COc1cc(-c2c[nH]c(=O)[nH]c2=O)nn2ccnc12` [Example 678, 5-(8-isobutoxyimidazo[1,2-b]pyridazin-6-yl)pyrimidine-2,4(1H,3H)-dione] gave an EC50 (CD73 [1]) of 38.8 nM and an IC50 (CD73 [2]) of 23.9 nM.
